Assay results: patent US20040048747A1, “Product formulation and method of its application for increasing the efficiency of systemic herbicides” (priority 2000, published 2004)

Assays:
Assay type in all cases: in vivo
[1] = system: dandelion (Taraxacum cordátum Palmgr.); test: Greenhouse pot spray test, selected formates with selected systemic herbicides (Example 3), dandelion; details: for desiccation of the leaves / damage (necrosis): formates 3000 ml (g) per decar, 6, 14 and 21 days after spraying
Description: Potassium diformate in a 50% water/volume solution (coded K-diform in the enclosed graphs). Potassium formate (50% w/v) (coded K-form in the enclosed graphs). Solid calcium formate solid was dissolved in water and coded Ca-form in the enclosed graphs. Dose rates applied were: 0 and 3000 ml (g) per decar (10^3 m^2).
“Roundup Bio” (360 gram/litre glyphosate), “Arsenal 250” (250 gram/litre imazapyr) and “Titus” (250 gram/kg rimsulfuron). The herbicides were applied at dose rates: 10%-40% of full rate:
Adjuvant: 0.1% wetting agent (“DP-spredemiddel”)
The formates, herbicides and adjuvants were mixed before spraying and applied at a calculated spray volume of 50 litre per decar (10^3 m^2). Seven pots were given each treatment.
The investigations were done on dandelion (Taraxacum cordátum Palmgr.):
The dandelion seeds were sown June 20 and transplanted to 13 cm plastic pots, one plant per pot. The plants were raised in a greenhouse. The spraying was carried out August 1 and the plants kept in greenhouse until harvest. Greenhouse conditions: 20-25° C. in 16 hrs, 14° C. in 8 hrs. Day length: 16 hrs artificial light.
Assessments of damage (necrosis): 6, 14 and 21 days after treatment (DAT). Regrowth and fresh weight were assessed 21 days after spraying.

[2] = system: Poa annua; test: Greenhouse pot spray test, potassium diformate and glyphosate combinations (Example 1), Poa annua; details: glyphosate alone, compared with the combination
From the text: (§1) The aim of this experiment was to investigate if a small dose of glyphosate, a foliage applied systemic herbicide, could extend the herbicide effect of potassium diformate. This is in particular important in perennial weeds, but also to have a complete kill of annual weeds.
(§2) Control of annual weeds will be essential in garden paths, roads, roadsides and other areas covered with gravel, bricks or flag stones. The weed must be totally killed since there is no competition from crop plants like in crop use situations. The aim of the experiment in greenhouse was to find methods to have optimal herbicide effect of K-diformate on different weed species and rape, which served as a model weed.
(§3) Seeds were sown in trays, and 2 seedlings were transplanted to 12 cm pots. The soil used was a mixture of 84% sphagnum, 10% sand and 6% clay. The pH was 5.8 and the soil was amended with balanced nutrients.
(§4) The temperature was set to 20° C. for 16 hours, 14° C. for 8 hours, but it varied ±3° C. Light period followed the natural day lengths, but artificial light was supplied 16 hours per day.
(§5) A wetting agent (0.1%) was used in order to secure complete contact with the plants to be treated. […]
(§6) Damage or injury of the plants was visually assessed after the following scale: […]

[3] = system: Dandelion (Taráxacum cordátum); test: Greenhouse pot spray test, potassium diformate and glyphosate combinations (Example 1), dandelion; details: glyphosate alone, compared with the combination
From the text: as §1, §2, §3, §4, §5, §6

Row | SMILES | desiccation of the leaves / damage (necrosis) [1] | herbicide effect (speed and efficiency) [2] | herbicide effect (speed and efficiency) [3] | regrowth after mixing herbicide with formate ([1]; 21 days after spraying, lowest dose rates of Roundup and Titus, compared between formates)
1 | O=C[O-].O=C[O-].[Ca+2] [Ca-formate, calcium formate] | even less effective than K-formate | – | – | –
2 | O=C[O-].[K+] [K-formate, Potassium formate] | less effective | – | – | –
3 | O=C(O)CNCP(=O)(O)O [glyphosate] | – | much slower and very much less efficient | much slower and very much less efficient | –
4 | O=CO.O=C[O-].[K+] [potassium diformate] | desiccated the leaves quickly | – | – | higher after mixing with K-diformate than mixing with Ca- or K-formate
